Experimental data reported in patent US20240360178A1, “MACROCYCLIC IMMUNOMODULATORS” (Bristol-Myers Squibb Company, priority 2021, published 2024).
Positions of bridges follow the written chain, without caps; N, C: chain ends. Non-standard residues stand in square brackets, D forms with d. Residues, ends and D or L forms follow the SMILES beside them. Phe(3-CF3) = N[C@@H](Cc1cccc(C(F)(F)F)c1)C(=O)O; Bip = N[C@@H](Cc1ccc(-c2ccccc2)cc1)C(=O)O; Phe(3-OMe) = COc1cccc(C[C@H](N)C(=O)O)c1; Phe(3-Me) = Cc1cccc(C[C@H](N)C(=O)O)c1; NMeF = CN[C@@H](Cc1ccccc1)C(=O)O; Cit = NC(=O)NCCC[C@H](N)C(=O)O; NMeA = CN[C@@H](C)C(=O)O; Orn = NCCC[C@H](N)C(=O)O; Dab = NCC[C@H](N)C(=O)O; Dap = NC[C@H](N)C(=O)O

Biological target: T1, human PD-1 (Jurkat-PD-1 cells) / PE-labeled human PD-L1-Ig (Homo sapiens, UniProt Q15116)
T1 construct: expressed in transfected cells; host or cells: Jurkat cell line over-expressing human PD-1
Test: Jurkat-PD-1 Cell Binding High-Content Screening Assay (CBA); Jurkat hPD1-PDL1 assay
Conditions: Jurkat cell line over-expressing human PD-1; PE-labeled PD-L1-Ig 20 nM final; compound incubated 2 hours at 37° C.; read-out: Jurkat HPD1-PDL1 IC50
In short: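 Compound was added to Jurkat-PD-1 cells in DMEM plus 10% fetal calf serum and incubated 2 hours at 37° C. Binding of phycoerythrin-conjugated PD-L1-Ig (20 nM final) to the cells was imaged.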

T1 sequence (Q15116 25-288): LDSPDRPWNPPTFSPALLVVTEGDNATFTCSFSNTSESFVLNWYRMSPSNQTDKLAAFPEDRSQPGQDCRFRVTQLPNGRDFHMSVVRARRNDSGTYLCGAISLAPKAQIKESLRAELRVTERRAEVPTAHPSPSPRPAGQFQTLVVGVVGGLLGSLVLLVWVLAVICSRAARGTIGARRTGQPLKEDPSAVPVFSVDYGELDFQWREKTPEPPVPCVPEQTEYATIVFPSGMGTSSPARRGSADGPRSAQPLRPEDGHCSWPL

Structure (SMILES) | IC50
CC(C)C[C@@H]1NC(=O)[C@H](CCCN)NC(=O)[C@H](Cc2ccccc2)N(C)C(=O)[C@H](C)N(C)C(=O)[C@H](CCCNC(=N)N)NC(=O)[C@H](Cc2ccc(-c3ccccc3)cc2)NC(=O)[C@H](C(C)C)NC(=O)[C@H](Cc2c[nH]c3ccccc23)NC(=O)[C@H](CC(=O)O)NC(=O)[C@H](Cc2ccc(O)cc2)NC(=O)[C@H](Cc2ccccc2)NC(=O)CSC[C@@H](C(=O)N[C@@H](CO)C(N)=O)NC(=O)[C@H]([C@@H](C)O)NC(=O)[C@H](C(C)C)NC1=O [Example 1357] ({CH2CO}-FYDWV[Bip]R[NMeA][NMeF][Orn]LVTCS-NH2; thioether N-14) | 210 nM
CC(C)C[C@@H]1NC(=O)[C@H](CCCNC(=N)N)NC(=O)[C@H](Cc2ccccc2)N(C)C(=O)[C@H](C)N(C)C(=O)[C@H](CCCNC(=N)N)NC(=O)[C@H](Cc2ccc(-c3ccccc3)cc2)NC(=O)[C@H](C(C)C)NC(=O)[C@H](Cc2c[nH]c3ccccc23)NC(=O)[C@H](CC(=O)O)NC(=O)[C@H](Cc2ccc(O)cc2)NC(=O)[C@H](Cc2ccccc2)NC(=O)CSC[C@@H](C(=O)N[C@@H](C)C(N)=O)NC(=O)[C@H]([C@@H](C)O)NC(=O)[C@H](C(C)C)NC1=O [Example 1358] ({CH2CO}-FYDWV[Bip]R[NMeA][NMeF]RLVTCA-NH2; thioether N-14) | 400 nM
CC(C)C[C@@H]1NC(=O)[C@H](CCCCN)NC(=O)[C@H](Cc2ccccc2)N(C)C(=O)[C@H](C)N(C)C(=O)[C@H](CCCNC(=N)N)NC(=O)[C@H](Cc2ccc(-c3ccccc3)cc2)NC(=O)[C@H](C(C)C)NC(=O)[C@H](Cc2c[nH]c3ccccc23)NC(=O)[C@H](CC(=O)O)NC(=O)[C@H](Cc2ccc(O)cc2)NC(=O)[C@H](Cc2ccccc2)NC(=O)CSC[C@@H](C(=O)N[C@@H](CO)C(N)=O)NC(=O)[C@H]([C@@H](C)O)NC(=O)[C@H](C(C)C)NC1=O [Example 1359] ({CH2CO}-FYDWV[Bip]R[NMeA][NMeF]KLVTCS-NH2; thioether N-14) | 270 nM
CC(C)C[C@@H]1NC(=O)[C@H](CCCCN)NC(=O)[C@H](Cc2ccccc2)N(C)C(=O)[C@H](C)N(C)C(=O)[C@H](CCCNC(=N)N)NC(=O)[C@H](Cc2ccc(-c3ccccc3)cc2)NC(=O)[C@H](C(C)C)NC(=O)[C@H](Cc2c[nH]c3ccccc23)NC(=O)[C@H](CC(=O)O)NC(=O)[C@H](Cc2ccc(O)cc2)NC(=O)[C@H](CC(N)=O)NC(=O)CSC[C@@H](C(=O)N[C@@H](CCC(=O)O)C(N)=O)NC(=O)[C@H]([C@@H](C)O)NC(=O)[C@H](C(C)C)NC1=O [Example 1360] ({CH2CO}-NYDWV[Bip]R[NMeA][NMeF]KLVTCE-NH2; thioether N-14) | 570 nM
CC(C)C[C@@H]1NC(=O)[C@H](CCCN)NC(=O)[C@H](Cc2ccccc2)N(C)C(=O)[C@H](C)N(C)C(=O)[C@H](CCCNC(=N)N)NC(=O)[C@H](Cc2ccc(-c3ccccc3)cc2)NC(=O)[C@H](C(C)C)NC(=O)[C@H](Cc2c[nH]c3ccccc23)NC(=O)[C@H](CC(=O)O)NC(=O)[C@H](Cc2ccc(O)cc2)NC(=O)[C@H](Cc2ccccc2)NC(=O)CSC[C@@H](C(=O)N[C@@H](CCC(=O)O)C(N)=O)NC(=O)[C@H]([C@@H](C)O)NC(=O)[C@H](C(C)C)NC1=O [Example 1361] ({CH2CO}-FYDWV[Bip]R[NMeA][NMeF][Orn]LVTCE-NH2; thioether N-14) | 380 nM
CC(C)C[C@@H]1NC(=O)[C@H](CCCNC(=N)N)NC(=O)[C@H](Cc2ccccc2)N(C)C(=O)[C@H]2CCCN2C(=O)[C@H](CCCNC(=N)N)NC(=O)[C@H](Cc2ccc(-c3ccccc3)cc2)NC(=O)[C@H](C(C)C)NC(=O)[C@H](Cc2c[nH]c3ccccc23)NC(=O)[C@H](CC(=O)O)NC(=O)[C@H](Cc2ccc(O)cc2)NC(=O)[C@H](CC(N)=O)NC(=O)CSC[C@@H](C(=O)N[C@@H](C)C(N)=O)NC(=O)[C@H]([C@@H](C)O)NC(=O)[C@H](C(C)C)NC1=O [Example 1362] ({CH2CO}-NYDWV[Bip]R[dP][NMeF]RLVTCA-NH2; thioether N-14) | 190 nM
CC(C)C[C@@H]1NC(=O)[C@H](CCCNC(=N)N)NC(=O)[C@H](Cc2ccccc2)N(C)C(=O)[C@@H](C)NC(=O)[C@H](CCCNC(=N)N)NC(=O)[C@H](Cc2ccc(-c3ccccc3)cc2)NC(=O)[C@H](C(C)C)NC(=O)[C@H](Cc2c[nH]c3ccccc23)NC(=O)[C@H](CC(=O)O)NC(=O)[C@H](Cc2ccc(O)cc2)NC(=O)[C@H](CC(N)=O)NC(=O)CSC[C@@H](C(=O)N[C@@H](C)C(N)=O)NC(=O)[C@H]([C@@H](C)O)NC(=O)[C@H](C(C)C)NC1=O [Example 1363] ({CH2CO}-NYDWV[Bip]R[dA][NMeF]RLVTCA-NH2; thioether N-14) | 940 nM
CC(C)C[C@@H]1NC(=O)[C@H](CCCNC(=N)N)NC(=O)[C@H](Cc2ccccc2)N(C)C(=O)[C@H](CN)NC(=O)[C@H](CCCNC(=N)N)NC(=O)[C@H](Cc2ccc(-c3ccccc3)cc2)NC(=O)[C@H](C(C)C)NC(=O)[C@H](Cc2c[nH]c3ccccc23)NC(=O)[C@H](CC(=O)O)NC(=O)[C@H](Cc2ccc(O)cc2)NC(=O)[C@H](CC(N)=O)NC(=O)CSC[C@@H](C(=O)N[C@@H](C)C(N)=O)NC(=O)[C@H]([C@@H](C)O)NC(=O)[C@H](C(C)C)NC1=O [Example 1364] ({CH2CO}-NYDWV[Bip]R[Dap][NMeF]RLVTCA-NH2; thioether N-14) | 590 nM

The remaining lines, values ahead:

IC50 | Structure (SMILES)
760 nM | CC(C)C[C@@H]1NC(=O)[C@H](CCCNC(=N)N)NC(=O)[C@H](Cc2ccccc2)N(C)C(=O)[C@H](CCCCN)NC(=O)[C@H](CCCNC(=N)N)NC(=O)[C@H](Cc2ccc(-c3ccccc3)cc2)NC(=O)[C@H](C(C)C)NC(=O)[C@H](Cc2c[nH]c3ccccc23)NC(=O)[C@H](CC(=O)O)NC(=O)[C@H](Cc2ccc(O)cc2)NC(=O)[C@H](CC(N)=O)NC(=O)CSC[C@@H](C(=O)N[C@@H](C)C(N)=O)NC(=O)[C@H]([C@@H](C)O)NC(=O)[C@H](C(C)C)NC1=O [Example 1365] ({CH2CO}-NYDWV[Bip]RK[NMeF]RLVTCA-NH2; thioether N-14)
330 nM | CC(C)C[C@@H]1NC(=O)[C@H](CCCNC(=N)N)NC(=O)[C@H](Cc2ccccc2)N(C)C(=O)[C@@H](CCCCN)NC(=O)[C@H](CCCNC(=N)N)NC(=O)[C@H](Cc2ccc(-c3ccccc3)cc2)NC(=O)[C@H](C(C)C)NC(=O)[C@H](Cc2c[nH]c3ccccc23)NC(=O)[C@H](CC(=O)O)NC(=O)[C@H](Cc2ccc(O)cc2)NC(=O)[C@H](CC(N)=O)NC(=O)CSC[C@@H](C(=O)N[C@@H](C)C(N)=O)NC(=O)[C@H]([C@@H](C)O)NC(=O)[C@H](C(C)C)NC1=O [Example 1369] ({CH2CO}-NYDWV[Bip]R[dK][NMeF]RLVTCA-NH2; thioether N-14)
230 nM | CC(C)C[C@@H]1NC(=O)[C@H](CCCNC(=N)N)NC(=O)[C@H](Cc2ccccc2)N(C)C(=O)[C@H](C)N(C)C(=O)[C@H](CCCNC(N)=O)NC(=O)[C@H](Cc2ccc(-c3ccccc3)cc2)NC(=O)[C@H](C(C)C)NC(=O)[C@H](Cc2c[nH]c3ccccc23)NC(=O)[C@H](CC(=O)O)NC(=O)[C@H](Cc2ccc(O)cc2)NC(=O)[C@H](CC(N)=O)NC(=O)CSC[C@@H](C(=O)N[C@@H](C)C(N)=O)NC(=O)[C@H](CCCN)NC(=O)[C@H](C(C)C)NC1=O [Example 1371] ({CH2CO}-NYDWV[Bip][Cit][NMeA][NMeF]RLV[Orn]CA-NH2; thioether N-14)
180 nM | CC(C)C[C@@H]1NC(=O)[C@H](CCCNC(=N)N)NC(=O)[C@H](Cc2ccccc2)N(C)C(=O)[C@H](C)N(C)C(=O)[C@H](CCCNC(=N)N)NC(=O)[C@H](Cc2ccc(-c3ccccc3)cc2)NC(=O)[C@H](C(C)C)NC(=O)[C@H](Cc2c[nH]c3ccccc23)NC(=O)[C@H](CC(=O)O)NC(=O)[C@H](Cc2ccc(O)cc2)NC(=O)[C@H](CC(N)=O)NC(=O)CSC[C@@H](C(=O)N[C@@H](C)C(N)=O)NC(=O)[C@H](CCCN)NC(=O)[C@H](C(C)C)NC1=O [Example 1373] ({CH2CO}-NYDWV[Bip]R[NMeA][NMeF]RLV[Orn]CA-NH2; thioether N-14)
10 nM | Cc1cccc(C[C@@H]2NC(=O)[C@H](CC(=O)O)NC(=O)[C@H](Cc3ccc(O)cc3)NC(=O)[C@H](CC(N)=O)NC(=O)CSC[C@@H](C(=O)N[C@@H](C)C(N)=O)NC(=O)[C@H]([C@@H](C)O)NC(=O)[C@H](C(C)C)NC(=O)[C@H](CC(C)C)NC(=O)[C@H](CCN)NC(=O)[C@H](Cc3ccccc3)N(C)C(=O)[C@H](C)N(C)C(=O)[C@H](CCCNC(N)=O)NC(=O)[C@H](Cc3ccc(-c4ccccc4)cc3)NC(=O)[C@H](C(C)C)NC2=O)c1 [Example 1374] ({CH2CO}-NYD[Phe(3-Me)]V[Bip][Cit][NMeA][NMeF][Dab]LVTCA-NH2; thioether N-14)
80 nM | COc1cccc(C[C@@H]2NC(=O)[C@H](CC(=O)O)NC(=O)[C@H](Cc3ccc(O)cc3)NC(=O)[C@H](CC(N)=O)NC(=O)CSC[C@@H](C(=O)N[C@@H](C)C(N)=O)NC(=O)[C@H]([C@@H](C)O)NC(=O)[C@H](C(C)C)NC(=O)[C@H](CC(C)C)NC(=O)[C@H](CCN)NC(=O)[C@H](Cc3ccccc3)N(C)C(=O)[C@H](C)N(C)C(=O)[C@H](CCCNC(N)=O)NC(=O)[C@H](Cc3ccc(-c4ccccc4)cc3)NC(=O)[C@H](C(C)C)NC2=O)c1 [Example 1375] ({CH2CO}-NYD[Phe(3-OMe)]V[Bip][Cit][NMeA][NMeF][Dab]LVTCA-NH2; thioether N-14)
70 nM | CC(C)C[C@@H]1NC(=O)[C@H](CCN)NC(=O)[C@H](Cc2ccccc2)N(C)C(=O)[C@H](C)N(C)C(=O)[C@H](CCCNC(N)=O)NC(=O)[C@H](Cc2ccc(-c3ccccc3)cc2)NC(=O)[C@H](C(C)C)NC(=O)[C@H](Cc2cccc(C(F)(F)F)c2)NC(=O)[C@H](CC(=O)O)NC(=O)[C@H](Cc2ccc(O)cc2)NC(=O)[C@H](CC(N)=O)NC(=O)CSC[C@@H](C(=O)N[C@@H](C)C(N)=O)NC(=O)[C@H]([C@@H](C)O)NC(=O)[C@H](C(C)C)NC1=O [Example 1376] ({CH2CO}-NYD[Phe(3-CF3)]V[Bip][Cit][NMeA][NMeF][Dab]LVTCA-NH2; thioether N-14)
